Experimental data reported in ChEMBL document CHEMBL3217463, “Design, synthesis and biological evaluation of -lactam hydroxamate based TACE inhibitors” (Medchemcomm, 2011).

Tests used:
Rattus norvegicus [1] = assay: Toxicity in Wistar rat assessed as alanine aminotransferase at 100 mg/kg, po bid for 28 days (reference value: 20.78 +/- 1.31 U/L); type: organism-based; set-up: dose 100 mg/kg, route oral; conditions: in vivo, 672 h
[2] = biological target: T1, Disintegrin and metalloproteinase domain-containing protein 17 (Homo sapiens, UniProt P78536); assay: Inhibition of human catalytic domain of TACE assessed as inhibit the cleavage of the substrate by fluorescence-based FRET assay
T1 sequence (P78536 whole entry, the tested form may be a part): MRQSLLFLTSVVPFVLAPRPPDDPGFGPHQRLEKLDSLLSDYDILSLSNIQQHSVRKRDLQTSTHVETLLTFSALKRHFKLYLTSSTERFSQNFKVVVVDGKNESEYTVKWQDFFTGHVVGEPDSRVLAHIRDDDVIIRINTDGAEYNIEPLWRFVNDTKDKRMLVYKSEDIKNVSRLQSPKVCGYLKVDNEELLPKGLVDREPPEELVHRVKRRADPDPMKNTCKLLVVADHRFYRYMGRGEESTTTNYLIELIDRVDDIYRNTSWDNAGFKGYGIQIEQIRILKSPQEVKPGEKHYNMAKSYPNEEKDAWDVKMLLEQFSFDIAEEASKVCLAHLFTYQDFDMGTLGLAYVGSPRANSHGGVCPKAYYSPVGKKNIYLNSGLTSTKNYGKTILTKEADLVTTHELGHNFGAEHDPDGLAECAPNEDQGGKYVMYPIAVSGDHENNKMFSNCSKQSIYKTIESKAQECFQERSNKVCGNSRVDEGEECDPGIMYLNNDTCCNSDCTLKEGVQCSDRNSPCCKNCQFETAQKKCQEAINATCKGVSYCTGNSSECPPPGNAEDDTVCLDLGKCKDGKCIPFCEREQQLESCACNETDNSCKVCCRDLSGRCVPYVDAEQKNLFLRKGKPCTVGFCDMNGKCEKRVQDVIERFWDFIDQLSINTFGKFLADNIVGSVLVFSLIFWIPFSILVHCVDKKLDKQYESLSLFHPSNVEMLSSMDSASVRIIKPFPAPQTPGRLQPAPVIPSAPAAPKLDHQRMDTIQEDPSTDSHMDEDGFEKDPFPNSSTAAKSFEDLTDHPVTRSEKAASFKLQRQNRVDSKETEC

[3] = biological target: 72 kDa type IV collagenase (Homo sapiens, UniProt P08253); assay: Inhibition of MMP2 (unknown origin) by fluorescence-based FRET assay
Sequence of 72 kDa type IV collagenase (P08253 whole entry): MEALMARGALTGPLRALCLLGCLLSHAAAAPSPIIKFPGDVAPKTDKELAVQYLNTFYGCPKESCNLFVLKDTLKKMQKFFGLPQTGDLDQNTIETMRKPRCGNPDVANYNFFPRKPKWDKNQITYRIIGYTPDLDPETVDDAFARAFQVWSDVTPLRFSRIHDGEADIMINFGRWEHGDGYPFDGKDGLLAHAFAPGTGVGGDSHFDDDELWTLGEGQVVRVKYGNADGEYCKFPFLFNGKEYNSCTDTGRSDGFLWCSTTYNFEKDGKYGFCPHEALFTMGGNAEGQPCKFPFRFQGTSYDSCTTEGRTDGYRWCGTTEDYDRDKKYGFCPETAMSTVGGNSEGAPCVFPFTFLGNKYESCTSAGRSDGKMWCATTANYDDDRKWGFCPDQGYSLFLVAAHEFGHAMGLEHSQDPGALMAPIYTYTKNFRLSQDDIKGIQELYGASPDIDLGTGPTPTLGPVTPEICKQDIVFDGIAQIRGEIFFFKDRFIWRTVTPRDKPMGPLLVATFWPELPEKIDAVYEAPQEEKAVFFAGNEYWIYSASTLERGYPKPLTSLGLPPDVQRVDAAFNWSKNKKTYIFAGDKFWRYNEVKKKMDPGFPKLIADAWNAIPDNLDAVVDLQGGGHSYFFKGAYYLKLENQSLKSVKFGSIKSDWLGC

Stromelysin-1 = Stromelysin-1 (Homo sapiens, UniProt P08254); assay: Inhibition of MMP3 (unknown origin) by fluorescence-based FRET assay
Sequence of Stromelysin-1 (P08254 whole entry): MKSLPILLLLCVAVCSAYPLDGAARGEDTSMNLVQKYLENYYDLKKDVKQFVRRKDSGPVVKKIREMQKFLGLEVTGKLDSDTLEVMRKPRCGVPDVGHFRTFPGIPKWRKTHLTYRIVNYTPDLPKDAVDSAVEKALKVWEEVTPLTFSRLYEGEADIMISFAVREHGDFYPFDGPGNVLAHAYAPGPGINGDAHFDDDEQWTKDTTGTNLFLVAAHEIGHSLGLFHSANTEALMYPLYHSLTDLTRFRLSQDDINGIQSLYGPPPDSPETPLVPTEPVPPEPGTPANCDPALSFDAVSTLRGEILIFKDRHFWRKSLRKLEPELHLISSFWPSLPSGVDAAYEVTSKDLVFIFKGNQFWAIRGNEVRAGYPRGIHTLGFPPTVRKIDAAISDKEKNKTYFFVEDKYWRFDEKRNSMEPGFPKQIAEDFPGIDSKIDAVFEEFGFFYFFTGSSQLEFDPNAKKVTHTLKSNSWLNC

[4] = biological target: Matrix metalloproteinase-9 (Homo sapiens, UniProt P14780); assay: Inhibition of MMP9 (unknown origin) by fluorescence-based FRET assay
Sequence of Matrix metalloproteinase-9 (P14780 whole entry): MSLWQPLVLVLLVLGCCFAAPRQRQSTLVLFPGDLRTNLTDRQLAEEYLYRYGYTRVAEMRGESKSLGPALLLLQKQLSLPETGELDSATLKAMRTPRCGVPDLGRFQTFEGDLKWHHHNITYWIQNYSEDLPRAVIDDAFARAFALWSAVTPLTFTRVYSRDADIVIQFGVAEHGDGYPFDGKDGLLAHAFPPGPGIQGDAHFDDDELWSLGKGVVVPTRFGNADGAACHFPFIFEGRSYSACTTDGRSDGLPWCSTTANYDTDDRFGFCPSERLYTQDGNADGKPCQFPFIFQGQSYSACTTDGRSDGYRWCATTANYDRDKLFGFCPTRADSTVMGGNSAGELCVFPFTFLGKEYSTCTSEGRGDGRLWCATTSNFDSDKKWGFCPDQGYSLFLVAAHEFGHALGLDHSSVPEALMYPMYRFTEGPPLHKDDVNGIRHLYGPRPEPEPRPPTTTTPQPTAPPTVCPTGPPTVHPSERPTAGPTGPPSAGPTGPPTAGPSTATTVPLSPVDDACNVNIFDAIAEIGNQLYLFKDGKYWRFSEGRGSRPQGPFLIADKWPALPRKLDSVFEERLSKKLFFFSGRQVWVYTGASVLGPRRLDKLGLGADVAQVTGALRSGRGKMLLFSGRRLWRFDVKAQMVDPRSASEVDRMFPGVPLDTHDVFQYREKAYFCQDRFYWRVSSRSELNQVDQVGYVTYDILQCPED

Collagenase 3 = Collagenase 3 (Homo sapiens, UniProt P45452); assay: Inhibition of MMP13 (unknown origin) by fluorescence-based FRET assay
[5] = biological target: Matrix metalloproteinase-14 (Homo sapiens, UniProt P50281); assay: Inhibition of MMP14 (unknown origin) by fluorescence-based FRET assay
[6] = biological target: T1, Disintegrin and metalloproteinase domain-containing protein 17; assay: Ratio of IC50 for human catalytic domain of TACE to IC50 for ADAM10 (unknown origin)
[7] = biological target: T1, Disintegrin and metalloproteinase domain-containing protein 17; assay: Ratio of IC50 for human catalytic domain of TACE to IC50 for MMP1 (unknown origin)
[8] = biological target: T1, Disintegrin and metalloproteinase domain-containing protein 17; assay: Ratio of IC50 for human catalytic domain of TACE to IC50 for MMP3 (unknown origin)
[9] = biological target: T1, Disintegrin and metalloproteinase domain-containing protein 17; assay: Ratio of IC50 for human catalytic domain of TACE to IC50 for MMP7 (unknown origin)
[10] = biological target: T1, Disintegrin and metalloproteinase domain-containing protein 17; assay: Ratio of IC50 for human catalytic domain of TACE to IC50 for MMP8 (unknown origin)
[11] = biological target: T1, Disintegrin and metalloproteinase domain-containing protein 17; assay: Ratio of IC50 for human catalytic domain of TACE to IC50 for MMP9 (unknown origin)
[12] = Half life in Wistar rat at 5 mg/kg, iv; type: ADME, organism-based; set-up: dose 5 mg/kg, route intravenous; conditions: in vivo
[13] = Oral bioavailability in Wistar rat at 5 mg/kg; type: ADME, organism-based; conditions: in vivo
Rattus norvegicus [14] = assay: Toxicity in Wistar rat assessed as survival at 100 mg/kg, po bid for 28 days; type: organism-based; set-up: dose 100 mg/kg, route oral; conditions: in vivo, 672 h
Rattus norvegicus [15] = assay: Toxicity in Wistar rat assessed as body weight at 100 mg/kg, po bid for 28 days; type: organism-based; set-up: dose 100 mg/kg, route oral; conditions: in vivo, 672 h
Rattus norvegicus [16] = assay: Toxicity in Wistar rat assessed as relative brain weight at 100 mg/kg, po bid for 28 days (reference value: 0.727+/- 0.024 %); type: organism-based; set-up: dose 100 mg/kg, route oral; conditions: in vivo, 672 h

COCCc1cc(COc2ccc([C@]3(N)CCN([C@H](CC(C)C)C(=O)NO)C3=O)cc2)c2ccccc2n1
Activity (Rattus norvegicus [1]): 21.04 U/L | IC50 [2]: 2.3 nM | IC50 [3]: 1090 nM | IC50 (Stromelysin-1): 1020 nM | IC50 [4]: 1210 nM | IC50 (Collagenase 3): 1110 nM | IC50 [5]: 1080 nM | Ratio IC50 [6]: > 500 | Ratio IC50 [7]: > 500 | Ratio IC50 [8]: > 500 | Ratio IC50 [9]: > 500 | Ratio IC50 [10]: > 500 | Ratio IC50 [11]: > 500 | half-life [12]: 65.4 min | bioavailability [13]: 59.7% | Activity (Rattus norvegicus [14]): Non-toxic | Activity (Rattus norvegicus [15]): Non-toxic | Activity (Rattus norvegicus [16]): 0.703%
